# pEC50: −log10 of the molar value.
# System: genotype 1b replicon (1b-Con1, 1b-N)
# Assay: 1b stable replicon (luciferase reporter)
# Type: cell-based, HCV
# Details: Hepatitis C virus, HuH-7 cells, 5% FBS
row,Structure (SMILES),pEC50
1,Cn1ccc(C(=O)N[C@H]2CCCCC/C=C\[C@@H]3C[C@@]3(C(=O)NS(=O)(=O)C3(C)CC3)NC(=O)[C@@H]3C[C@@H](Oc4nc5cc(OC(F)(F)F)ccc5c5ccccc45)CN3C2=O)n1,> 10.00
2,Cn1ccc(C(=O)N[C@H]2CCCCC/C=C\[C@@H]3C[C@@]3(C(=O)NS(=O)(=O)C3(C)CC3)NC(=O)[C@@H]3C[C@@H](Oc4nc5cc(F)ccc5c5cc(F)ccc45)CN3C2=O)n1,> 10.00
3,COc1ccc2c(c1)nc(O[C@@H]1C[C@H]3C(=O)N[C@]4(C(=O)NS(=O)(=O)C5CC5)C[C@H]4/C=C\CCCCC[C@H](NC(=O)c4ccn(C)n4)C(=O)N3C1)c1ccc(F)cc12,9.30 to 10.00
4,Cc1cc(C(=O)N[C@H]2CCCCC/C=C\[C@@H]3C[C@@]3(C(=O)NS(=O)(=O)C3(C)CC3)NC(=O)[C@@H]3C[C@@H](Oc4nc5cc(F)ccc5c5ccccc45)CN3C2=O)no1,9.30 to 10.00
5,Cc1cc(C(=O)N[C@H]2CCCCC/C=C\[C@@H]3C[C@@]3(C(=O)NS(=O)(=O)C3CC3)NC(=O)[C@@H]3C[C@@H](Oc4nc5ccccc5c5ccc(F)cc45)CN3C2=O)no1,9.30 to 10.00
6,CC1(S(=O)(=O)NC(=O)[C@@]23C[C@H]2/C=C\CCCCC[C@H](NC(=O)[C@@H](O)C(F)(F)F)C(=O)N2C[C@H](Oc4nc5cc(F)ccc5c5ccccc45)C[C@H]2C(=O)N3)CC1,9.30 to 10.00
7,CC1(S(=O)(=O)NC(=O)[C@@]23C[C@H]2/C=C\CCCCC[C@H](NC(=O)[C@H](O)C(F)(F)F)C(=O)N2C[C@H](Oc4nc5cc(F)ccc5c5ccccc45)C[C@H]2C(=O)N3)CC1,9.30 to 10.00
8,Cc1cc(C(=O)N[C@H]2CCCCC/C=C\[C@@H]3C[C@@]3(C(=O)NS(=O)(=O)C3CC3)NC(=O)[C@@H]3C[C@@H](Oc4nc5ccccc5c5cc(F)ccc45)CN3C2=O)no1,9.30 to 10.00

# System: genotype 3a NS3 gene in transient replicon
# Assay: 3a transient replicon (luciferase reporter)
# Type: cell-based, HCV
# Details: Hepatitis C virus, Huh-7, read-out: 3a transient replicon (nM)
row,Structure (SMILES),EC50
1,Cn1ccc(C(=O)N[C@H]2CCCCC/C=C\[C@@H]3C[C@@]3(C(=O)NS(=O)(=O)C3(C)CC3)NC(=O)[C@@H]3C[C@@H](Oc4nc5cc(OC(F)(F)F)ccc5c5ccccc45)CN3C2=O)n1,0.1 to 0.5 nM
2,COc1ccc2c(c1)nc(O[C@@H]1C[C@H]3C(=O)N[C@]4(C(=O)NS(=O)(=O)C5CC5)C[C@H]4/C=C\CCCCC[C@H](NC(=O)c4ccn(C)n4)C(=O)N3C1)c1ccc(F)cc12,0.5 to 1 nM
3,Cc1cc(C(=O)N[C@H]2CCCCC/C=C\[C@@H]3C[C@@]3(C(=O)NS(=O)(=O)C3(C)CC3)NC(=O)[C@@H]3C[C@@H](Oc4nc5cc(F)ccc5c5ccccc45)CN3C2=O)no1,> 1 nM
4,Cc1cc(C(=O)N[C@H]2CCCCC/C=C\[C@@H]3C[C@@]3(C(=O)NS(=O)(=O)C3CC3)NC(=O)[C@@H]3C[C@@H](Oc4nc5ccccc5c5ccc(F)cc45)CN3C2=O)no1,> 1 nM
5,CC1(S(=O)(=O)NC(=O)[C@@]23C[C@H]2/C=C\CCCCC[C@H](NC(=O)[C@@H](O)C(F)(F)F)C(=O)N2C[C@H](Oc4nc5cc(F)ccc5c5ccccc45)C[C@H]2C(=O)N3)CC1,> 1 nM
6,CC1(S(=O)(=O)NC(=O)[C@@]23C[C@H]2/C=C\CCCCC[C@H](NC(=O)[C@H](O)C(F)(F)F)C(=O)N2C[C@H](Oc4nc5cc(F)ccc5c5ccccc45)C[C@H]2C(=O)N3)CC1,> 1 nM
7,Cc1cc(C(=O)N[C@H]2CCCCC/C=C\[C@@H]3C[C@@]3(C(=O)NS(=O)(=O)C3CC3)NC(=O)[C@@H]3C[C@@H](Oc4nc5ccccc5c5cc(F)ccc45)CN3C2=O)no1,> 1 nM

# System: genotype 1b transient replicon
# Assay: 1b transient replicon (luciferase reporter)
# Type: cell-based, HCV
# Details: Hepatitis C virus, HuH-7 cells, 5% FBS
row,Structure (SMILES),pEC50
1,Cn1ccc(C(=O)N[C@H]2CCCCC/C=C\[C@@H]3C[C@@]3(C(=O)NS(=O)(=O)C3(C)CC3)NC(=O)[C@@H]3C[C@@H](Oc4nc5cc(OC(F)(F)F)ccc5c5ccccc45)CN3C2=O)n1,9.30 to 10.00
2,Cn1ccc(C(=O)N[C@H]2CCCCC/C=C\[C@@H]3C[C@@]3(C(=O)NS(=O)(=O)C3(C)CC3)NC(=O)[C@@H]3C[C@@H](Oc4nc5cc(F)ccc5c5cc(F)ccc45)CN3C2=O)n1,9.30 to 10.00
3,COc1ccc2c(c1)nc(O[C@@H]1C[C@H]3C(=O)N[C@]4(C(=O)NS(=O)(=O)C5CC5)C[C@H]4/C=C\CCCCC[C@H](NC(=O)c4ccn(C)n4)C(=O)N3C1)c1ccc(F)cc12,9.00 to 9.30
4,Cc1cc(C(=O)N[C@H]2CCCCC/C=C\[C@@H]3C[C@@]3(C(=O)NS(=O)(=O)C3(C)CC3)NC(=O)[C@@H]3C[C@@H](Oc4nc5cc(F)ccc5c5ccccc45)CN3C2=O)no1,9.30 to 10.00
5,Cc1cc(C(=O)N[C@H]2CCCCC/C=C\[C@@H]3C[C@@]3(C(=O)NS(=O)(=O)C3CC3)NC(=O)[C@@H]3C[C@@H](Oc4nc5ccccc5c5ccc(F)cc45)CN3C2=O)no1,9.30 to 10.00
6,CC1(S(=O)(=O)NC(=O)[C@@]23C[C@H]2/C=C\CCCCC[C@H](NC(=O)[C@@H](O)C(F)(F)F)C(=O)N2C[C@H](Oc4nc5cc(F)ccc5c5ccccc45)C[C@H]2C(=O)N3)CC1,9.30 to 10.00
7,CC1(S(=O)(=O)NC(=O)[C@@]23C[C@H]2/C=C\CCCCC[C@H](NC(=O)[C@H](O)C(F)(F)F)C(=O)N2C[C@H](Oc4nc5cc(F)ccc5c5ccccc45)C[C@H]2C(=O)N3)CC1,> 10.00
8,Cc1cc(C(=O)N[C@H]2CCCCC/C=C\[C@@H]3C[C@@]3(C(=O)NS(=O)(=O)C3CC3)NC(=O)[C@@H]3C[C@@H](Oc4nc5ccccc5c5cc(F)ccc45)CN3C2=O)no1,9.30 to 10.00

# System: genotype 1a transient replicon (1a-H77)
# Assay: 1a transient replicon (luciferase reporter)
# Type: cell-based, HCV
# Details: Hepatitis C virus, HuH-7 cells, 5% FBS
row,Structure (SMILES),pEC50
1,Cn1ccc(C(=O)N[C@H]2CCCCC/C=C\[C@@H]3C[C@@]3(C(=O)NS(=O)(=O)C3(C)CC3)NC(=O)[C@@H]3C[C@@H](Oc4nc5cc(OC(F)(F)F)ccc5c5ccccc45)CN3C2=O)n1,> 10.00
2,Cn1ccc(C(=O)N[C@H]2CCCCC/C=C\[C@@H]3C[C@@]3(C(=O)NS(=O)(=O)C3(C)CC3)NC(=O)[C@@H]3C[C@@H](Oc4nc5cc(F)ccc5c5cc(F)ccc45)CN3C2=O)n1,9.30 to 10.00
3,COc1ccc2c(c1)nc(O[C@@H]1C[C@H]3C(=O)N[C@]4(C(=O)NS(=O)(=O)C5CC5)C[C@H]4/C=C\CCCCC[C@H](NC(=O)c4ccn(C)n4)C(=O)N3C1)c1ccc(F)cc12,9.30 to 10.00
4,Cc1cc(C(=O)N[C@H]2CCCCC/C=C\[C@@H]3C[C@@]3(C(=O)NS(=O)(=O)C3(C)CC3)NC(=O)[C@@H]3C[C@@H](Oc4nc5cc(F)ccc5c5ccccc45)CN3C2=O)no1,> 10.00
5,Cc1cc(C(=O)N[C@H]2CCCCC/C=C\[C@@H]3C[C@@]3(C(=O)NS(=O)(=O)C3CC3)NC(=O)[C@@H]3C[C@@H](Oc4nc5ccccc5c5ccc(F)cc45)CN3C2=O)no1,> 10.00
6,CC1(S(=O)(=O)NC(=O)[C@@]23C[C@H]2/C=C\CCCCC[C@H](NC(=O)[C@@H](O)C(F)(F)F)C(=O)N2C[C@H](Oc4nc5cc(F)ccc5c5ccccc45)C[C@H]2C(=O)N3)CC1,> 10.00
7,CC1(S(=O)(=O)NC(=O)[C@@]23C[C@H]2/C=C\CCCCC[C@H](NC(=O)[C@H](O)C(F)(F)F)C(=O)N2C[C@H](Oc4nc5cc(F)ccc5c5ccccc45)C[C@H]2C(=O)N3)CC1,> 10.00
8,Cc1cc(C(=O)N[C@H]2CCCCC/C=C\[C@@H]3C[C@@]3(C(=O)NS(=O)(=O)C3CC3)NC(=O)[C@@H]3C[C@@H](Oc4nc5ccccc5c5cc(F)ccc45)CN3C2=O)no1,> 10.00

# System: genotype 1a replicon (1a-H77)
# Assay: 1a stable replicon (luciferase reporter)
# Type: cell-based, HCV
# Details: Hepatitis C virus, Huh-7, luciferase reporter, HuH-7 cells, 5% FBS
row,Structure (SMILES),pEC50
1,Cn1ccc(C(=O)N[C@H]2CCCCC/C=C\[C@@H]3C[C@@]3(C(=O)NS(=O)(=O)C3(C)CC3)NC(=O)[C@@H]3C[C@@H](Oc4nc5cc(OC(F)(F)F)ccc5c5ccccc45)CN3C2=O)n1,9.30 to 10.00
2,Cn1ccc(C(=O)N[C@H]2CCCCC/C=C\[C@@H]3C[C@@]3(C(=O)NS(=O)(=O)C3(C)CC3)NC(=O)[C@@H]3C[C@@H](Oc4nc5cc(F)ccc5c5cc(F)ccc45)CN3C2=O)n1,9.30 to 10.00
3,COc1ccc2c(c1)nc(O[C@@H]1C[C@H]3C(=O)N[C@]4(C(=O)NS(=O)(=O)C5CC5)C[C@H]4/C=C\CCCCC[C@H](NC(=O)c4ccn(C)n4)C(=O)N3C1)c1ccc(F)cc12,9.30 to 10.00
4,Cc1cc(C(=O)N[C@H]2CCCCC/C=C\[C@@H]3C[C@@]3(C(=O)NS(=O)(=O)C3(C)CC3)NC(=O)[C@@H]3C[C@@H](Oc4nc5cc(F)ccc5c5ccccc45)CN3C2=O)no1,9.30 to 10.00
5,Cc1cc(C(=O)N[C@H]2CCCCC/C=C\[C@@H]3C[C@@]3(C(=O)NS(=O)(=O)C3CC3)NC(=O)[C@@H]3C[C@@H](Oc4nc5ccccc5c5ccc(F)cc45)CN3C2=O)no1,9.30 to 10.00
6,CC1(S(=O)(=O)NC(=O)[C@@]23C[C@H]2/C=C\CCCCC[C@H](NC(=O)[C@@H](O)C(F)(F)F)C(=O)N2C[C@H](Oc4nc5cc(F)ccc5c5ccccc45)C[C@H]2C(=O)N3)CC1,9.00 to 9.30
7,CC1(S(=O)(=O)NC(=O)[C@@]23C[C@H]2/C=C\CCCCC[C@H](NC(=O)[C@H](O)C(F)(F)F)C(=O)N2C[C@H](Oc4nc5cc(F)ccc5c5ccccc45)C[C@H]2C(=O)N3)CC1,9.30 to 10.00
8,Cc1cc(C(=O)N[C@H]2CCCCC/C=C\[C@@H]3C[C@@]3(C(=O)NS(=O)(=O)C3CC3)NC(=O)[C@@H]3C[C@@H](Oc4nc5ccccc5c5cc(F)ccc45)CN3C2=O)no1,9.30 to 10.00
